Results from patent US20230114241A1, “METHODS OF TREATING EPILEPSY USING THE SAME” (Trevena, Inc., priority 2019, published 2023).

Experiments:
[1] = biological target: T1, human sphingosine-1-phosphate receptor 1 (S1P1) (Homo sapiens, UniProt P21453); test: β-Arrestin2 recruitment assay (PathHunter), S1P1 CHO-K1 cells; type: cell-based; settings: for Emax: efficacy normalized to maximum efficacy of fingolimod, read-out: hS1P1 B-arrestin2 SPAN; for EC50: β-arrestin2 recruitment, read-out: hS1P1 B-arrestin2 pEC50 (converted)
Summary of the method: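 Agonist-driven β-arrestin2 recruitment measured by β-galactosidase complementation after 60 min compound exposure at 37 °C and 1 h detection at room temperature. Cells: stable CHO-K1 line expressing tagged human S1P1 with EA-β-arrestin2, plated the night before. Data expressed relative to fingolimod.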
Target sequence in this assay (P21453 whole entry): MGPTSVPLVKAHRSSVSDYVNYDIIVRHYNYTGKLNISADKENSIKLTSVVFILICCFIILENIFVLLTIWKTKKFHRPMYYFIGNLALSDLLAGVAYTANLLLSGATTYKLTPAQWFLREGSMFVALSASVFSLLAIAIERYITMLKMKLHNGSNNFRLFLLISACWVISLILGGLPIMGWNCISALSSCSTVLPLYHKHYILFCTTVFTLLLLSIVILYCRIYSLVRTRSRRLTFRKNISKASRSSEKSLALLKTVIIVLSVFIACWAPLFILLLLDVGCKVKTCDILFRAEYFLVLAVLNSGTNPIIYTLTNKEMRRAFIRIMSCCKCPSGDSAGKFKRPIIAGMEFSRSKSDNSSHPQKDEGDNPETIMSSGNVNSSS
Target sequence in this assay (P32121 whole entry partner): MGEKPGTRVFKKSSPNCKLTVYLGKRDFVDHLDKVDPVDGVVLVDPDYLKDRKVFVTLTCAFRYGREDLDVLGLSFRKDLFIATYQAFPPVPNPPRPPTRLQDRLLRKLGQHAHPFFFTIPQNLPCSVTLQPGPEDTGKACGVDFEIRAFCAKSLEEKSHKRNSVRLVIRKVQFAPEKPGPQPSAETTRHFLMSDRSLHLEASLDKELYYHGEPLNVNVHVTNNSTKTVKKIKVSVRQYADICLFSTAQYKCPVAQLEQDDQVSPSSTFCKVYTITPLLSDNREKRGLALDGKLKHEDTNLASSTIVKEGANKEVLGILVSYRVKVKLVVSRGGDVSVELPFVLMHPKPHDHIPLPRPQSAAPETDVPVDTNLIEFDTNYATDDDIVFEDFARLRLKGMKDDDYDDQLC

[2] = biological target: T1, human sphingosine-1-phosphate receptor 1 (S1P1); test: Inhibition of cAMP production (HTRF cAMP HiRange), S1P1 CHO-K1 cells; type: cell-based; settings: for Emax: CHO-K1, efficacy normalized to maximum efficacy of fingolimod, read-out: hS1P1 CAMP SPAN; for EC50: read-out: hS1P1 CAMP pEC50 (converted)
Summary of the method: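 Intracellular cAMP changes read by TR-FRET (HTRF HiRange, 1 h room temperature) after 30 min compound exposure at 37 °C. Cells: overnight-plated CHO-K1 stably expressing tagged human S1P1 with EA-β-arrestin2. Responses normalized to fingolimod.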
Target sequence in this assay (P21453 whole entry): as the sequence (P21453 whole entry) above

[3] = inhibition of cAMP production, S1P1
[4] = CHO-K1, β-arrestin2 recruitment
[5] = inhibition of cAMP production, potency

| Emax ([1]; CHO-K1) | EC50 ([1]; S1P1) | Emax [2] | EC50 [2, 3] | Emax [1, 4] | EC50 ([1]; potency) | Emax ([2]; inhibition of cAMP production) | EC50 [2, 5] | SMILES |
| --- | --- | --- | --- | --- | --- | --- | --- | --- |
| < 75% | < 10000 nM | > 75% | > 316 nM |  |  |  |  | CCC1(CC)CC(=O)c2cc(-c3nc(-c4ccc(C)nc4)no3)ccc2O1 [Compound 550, 2,2-diethyl-6-(3-(6-methylpyridin-3-yl)-1,2,4-oxadiazol-5-yl)chroman-4-one] |
| > 75% | > 10000 nM | > 75% | > 316 nM |  |  |  |  | CCC1(CC)CC(=O)c2cc(-c3nc(-c4ccn[nH]4)no3)ccc2O1 [Compound 470, 6-(3-(1H-pyrazol-5-yl)-1,2,4-oxadiazol-5-yl)-2,2-diethyl-chroman-4-one] |
| < 75% | > 10000 nM | < 75% | > 316 nM |  |  |  |  | O=C1c2cc(-c3nc(-c4cccnc4)no3)ccc2OC(CO)(CO)C1Br (stereo not shown) [Compound 479, 3-bromo-2,2-bis(hydroxy-methyl)-6-[3-(pyridin-3-yl)-1,2,4-oxadiazol-5-yl]-3,4-dihydro-2H-1-benzopyran-4-one] |
| < 75% | > 10000 nM | > 75% | > 316 nM |  |  |  |  | N#Cc1cc(-c2nnc(-c3ccc4c(c3)ncn4CCO)o2)ccc1NCC(F)F [Compound 578, 2-[(2,2-difluoro-ethyl)amino]-5-{5-[1-(2-hydroxyethyl)-1H-1,3-benzodiazol-5-yl]-1,3,4-oxadiazol-2-yl}benzonitrile] |
| < 75% | < 10000 nM | > 75% | < 316 nM |  |  |  |  | CCC1(CC)CC(=O)c2cc(-c3nc(-c4ccnc(NS(C)(=O)=O)c4)no3)ccc2O1 [Compound 556, N-(4-(5-(2,2-diethyl-4-oxochroman-6-yl)-1,2,4-oxadiazol-3-yl)pyridin-2-yl)methanesulfonamide] |
| > 75% | < 10000 nM | > 75% | < 316 nM |  |  |  |  | CCC1(CC)CC(=O)c2cc(-c3nc(-c4ccoc4)no3)ccc2O1 [Compound 495, 2,2-diethyl-6-(3-(furan-3-yl)-1,2,4-oxadiazol-5-yl)chroman-4-one] |
| > 75% | < 10000 nM | > 75% | < 316 nM |  |  |  |  | N#Cc1cc(-c2nc(-c3ccc4c(c3)CCC(=O)N4)no2)ccc1NCC(F)(F)F [Compound 472, 5-[3-(2-oxo-1,2,3,4-tetrahydroquinolin-6-yl)-1,2,4-oxadiazol-5-yl]-2-[(2,2,2-trifluoro-ethyl)amino]benzonitrile] |
|  |  |  |  | < 75% | > 10000 nM | < 75% | > 316 nM | COc1cccc(-c2nc(-c3ccc4c(ccn4C(C)C)c3)ns2)c1 [Compound 366, 5-[5-(3-methoxyphenyl)-1,2,4-thiadiazol-3-yl]-1-(propan-2-yl)-1H-indole] |
| > 75% | > 10000 nM | < 75% | > 316 nM |  |  |  |  | CC(C)Nc1ccc(-c2nnc(-c3ccc4c(c3)ncn4C)o2)cc1C#N [Compound 572, 5-[5-(1-methyl-1H-1,3-benzodiazol-5-yl)-1,3,4-oxadiazol-2-yl]-2-[(propan-2-yl)amino]benzonitrile] |
| > 75% | < 10000 nM | > 75% | < 316 nM |  |  |  |  | CC(C)Nc1ccc(-c2nnc(-c3ccc4ncn(C)c4c3)o2)cc1C#N [Compound 579, 5-[5-(1-methyl-1H-1,3-benzodiazol-6-yl)-1,3,4-oxadiazol-2-yl]-2-[(propan-2-yl)amino]benzonitrile] |
| > 75% | > 10000 nM | < 75% | > 316 nM |  |  |  |  | CCC1(CC)CC(=O)c2cc(-c3nc(-c4ccncn4)no3)ccc2O1 [Compound 639, 2,2-diethyl-6-(3-(pyrimidin-4-yl)-1,2,4-oxadiazol-5-yl)chroman-4-one] |
| < 75% | < 10000 nM | < 75% | > 316 nM |  |  |  |  | COCC1(COC)CC(=O)c2cc(-c3nc(-c4ccncc4)no3)ccc2O1 [Compound 494, 2,2-bis(methoxy-methyl)-6-[3-(pyridin-4-yl)-1,2,4-oxadiazol-5-yl]-3,4-dihydro-2H-1-benzopyran-4-one] |
| < 75% | < 10000 nM | < 75% | < 316 nM |  |  |  |  | CCC1(CC)CC(=O)c2cc(-c3nc(-c4ccnc(C(N)=O)c4)no3)ccc2O1 [Compound 555, 4-(5-(2,2-diethyl-4-oxochroman-6-yl)-1,2,4-oxadiazol-3-yl)picolinamide] |
|  |  |  |  | < 75% | > 10000 nM | < 75% | > 316 nM | COc1cccc(-c2noc(-c3ccc4c(c3)nnn4C(C)C)n2)c1 [Compound 228, 5-(1-isopropyl-1H-benzo[d][1,2,3]triazol-5-yl)-3-(3-methoxy-phenyl)-1,2,4-oxadiazole] |
| > 75% |  | > 75% | < 316 nM |  |  |  |  | CC(C)Cn1nnc2cc(-c3nc4cccc(Br)c4o3)ccc21 [Compound 454, 7-bromo-2-(1-isobutyl-1H-benzo[d][1,2,3]triazol-5-yl)benzo[d]oxazole] |
|  |  |  |  | > 75% | < 10000 nM | > 75% | < 316 nM | CC(C)n1nnc2cc(-c3nsc(-c4ccccc4O)n3)ccc21 [Compound 112, 2-{3-[1-(propan-2-yl)-1H-1,2,3-benzotriazol-5-yl]-1,2,4-thiadiazol-5-yl}phenol] |
|  |  |  |  | < 75% | > 10000 nM | < 75% | > 316 nM | Cc1ccc(-c2noc(-c3ccc4c(c3)nnn4C3CCCC3)n2)cc1 [Compound 164, 1-cyclopentyl-5-[3-(4-methylphenyl)-1,2,4-oxadiazol-5-yl]-1H-1,2,3-benzotriazole] |
| < 75% | > 10000 nM | < 75% | > 316 nM |  |  |  |  | Cc1ccncc1-c1noc(-c2ccc3c(c2)NC(=O)CN3)n1 [Compound 613, 7-[3-(4-methylpyridin-3-yl)-1,2,4-oxadiazol-5-yl]-1,2,3,4-tetra-hydroquinoxalin-2-one] |
|  |  |  |  | > 75% | < 10000 nM | > 75% | < 316 nM | CC(C)n1nnc2cc(-c3noc(-c4ccccc4Br)n3)ccc21 [Compound 43, 5-(2-bromophenyl)-3-(1-isopropyl-1H-benzo[d][1,2,3]triazol-5-yl)-1,2,4-oxadiazole] |
| > 75% | < 10000 nM | > 75% | < 316 nM |  |  |  |  | CCC1(CC)CC(=O)c2cc(-c3nc(-c4ccnc(N)c4)no3)ccc2O1 [Compound 513, 6-(3-(2-aminopyridin-4-yl)-1,2,4-oxadiazol-5-yl)-2,2-diethyl-chroman-4-one] |
| > 75% | > 10000 nM | > 75% | > 316 nM |  |  |  |  | CCC1(CC)CC(=O)c2cc(-c3nc(-c4cccnn4)no3)ccc2O1 [Compound 621, 2,2-diethyl-6-(3-(pyridazin-3-yl)-1,2,4-oxadiazol-5-yl)chroman-4-one] |
|  |  |  |  | < 75% | > 10000 nM | < 75% | > 316 nM | COc1ccccc1-c1noc(-c2ccc3[nH]ccc3c2)n1 [Compound 368, 5-(1H-indol-5-yl)-3-(2-methoxyphenyl)-1,2,4-oxadiazole] |
| > 75% | < 10000 nM | < 75% | < 316 nM |  |  |  |  | CCC1(CC)CC(=O)c2cc(-c3nc(-c4cncnc4)no3)ccc2O1 [Compound 620, 2,2-diethyl-6-(3-(pyrimidin-5-yl)-1,2,4-oxadiazol-5-yl)chroman-4-one] |
| > 75% | < 10000 nM | > 75% | < 316 nM |  |  |  |  | CCC1(CC)CC(=O)c2cc(-c3nc(-c4cnccc4C)no3)ccc2O1 [Compound 549, 2,2-diethyl-6-(3-(4-methylpyridin-3-yl)-1,2,4-oxadiazol-5-yl)chroman-4-one] |
| > 75% | < 10000 nM | > 75% | < 316 nM |  |  |  |  | CC(C)Nc1ccc(-c2nnc(-c3cccc4[nH]cnc34)o2)cc1C#N [Compound 585, 5-[5-(1H-1,3-benzo-diazol-4-yl)-1,3,4-oxadiazol-2-yl]-2-[(propan-2-yl)amino]benzonitrile] |
|  |  |  |  | > 75% | < 10000 nM | < 75% | > 316 nM | CSc1ccccc1-c1nc(-c2ccc3c(c2)nnn3C2CCCC2)no1 [Compound 16, 3-(1-cyclopentyl-1H-benzo[d][1,2,3]triazol-5-yl)-5-(2-(methylthio)phenyl)-1,2,4-oxadiazole] |
|  |  |  |  | < 75% | > 10000 nM | < 75% | > 316 nM | COc1ccc(-c2nc(-c3cccc4[nH]ccc34)ns2)cc1 [Compound 361, 4-[5-(4-methoxyphenyl)-1,2,4-thiadiazol-3-yl]-1H-indole] |
| > 75% | > 10000 nM | < 75% | > 316 nM |  |  |  |  | O=C1CC(CO)(CO)Oc2ccc(-c3nc(-c4ccncc4)no3)cc21 [Compound 482, 2,2-bis(hydroxymethyl)-6-[3-(pyridin-4-yl)-1,2,4-oxadiazol-5-yl]-3,4-dihydro-2H-1-benzopyran-4-one] |
|  |  |  |  | > 75% | > 10000 nM | > 75% | > 316 nM | CCC1(CC)CC(=O)c2cc(-c3nc(-c4ccc(C(=O)N(C)C)cc4)no3)ccc2O1 [Compound 151, 4-(5-(2,2-diethyl-4-oxochroman-6-yl)-1,2,4-oxadiazol-3-yl)-N,N-dimethylbenzamide] |
